Test system: 460 barcoded cancer cell lines
Assay: PRISM pooled barcoded cancer cell line growth screen, 10-point dose-response, 5 days, AUC
Type: cell-based
Parameters: scale not given here
Description: Several small molecule inhibitors of distinct protein domains of EP300/CBP are available, though the majority target the histone acetyltransferase domain (HAT) or bromodomain (BRD)[5],[10],[21],[22]. […] We used these tools to investigate the relative contribution of the EP300/CBP BRD or HAT domain to tumor cell growth (Fig. 1a). To do so, we performed 10-point, dose-response growth assays using mixed pools of 460 barcoded cancer cell lines, over five days of treatment in vitro[33],[34]. Growth was measured using an area-under-the-curve (AUC) approach (Supplementary Table 1, Supplementary Fig. 1a). […] Given potential differences in compound penetration and solubility, and to compare the relative cell line and tumor-specific effects of these two compounds in assays performed non-simultaneously, we performed a median normalization of each dataset (Supplementary Table 2).

CNC(=O)Nc1ccc2c(c1)CCC21OC(=O)N(CC(=O)N(Cc2ccc(F)cc2)C(C)C(F)(F)F)C1=O (stereo not shown) [Compound A485]
AUC (MG63, Osteosarcoma): 0.9115 | AUC (MHHES1, Ewing Sarcoma): 0.4553 | AUC (MHHNB11, Neuroblastoma): 0.7182 | AUC (MIAPACA2, Pancreatic Cancer): 0.9009 | AUC (MKN1, Gastric Cancer): 0.9671 | AUC (MKN7, Gastric Cancer): 0.9501 | AUC (MKN45, Gastric Cancer): 0.5235 | AUC (MOLM13, AML): 0.5776 | AUC (MOLM16, AML): 1 | AUC (MOLT3, T-acute leukemia): 0.8162 | AUC (MOLT16, T-acute leukemia): 0.9273 | AUC (MON, Rhabdoid): 0.6327 | AUC (NB1, Neuroblastoma): 0.493 | AUC (NB4, AML): 1 | AUC (NCIH23, Lung Cancer): 0.8307 | AUC (NCIH28, Lung Cancer): 0.8488 | AUC (NCIH82, Lung Cancer): 1 | AUC (NCIH196, Lung Cancer): 0.825 | AUC (NCIH211, Lung Cancer): 0.6824 | AUC (NCIH226, Lung Cancer): 0.8402 | AUC (NCIH292, Lung Cancer): 0.7841 | AUC (NCIH322, Lung Cancer): 0.7616 | AUC (NCIH358, Lung Cancer): 0.8611 | AUC (NCIH441, Lung Cancer): 0.8818 | AUC (NCIH460, Lung Cancer): 0.9648 | AUC (NCIH520, Lung Cancer): 0.9521 | AUC (NCIH524, Lung Cancer): 0.8317 | AUC (NCIH596, Lung Cancer): 0.8954 | AUC (NCIH647, Lung Cancer): 1 | AUC (NCIH650, Lung Cancer): 0.8159 | AUC (NCIH661, Lung Cancer): 0.6677 | AUC (NCIH747, Colon/Colorectal Cancer): 0.838 | AUC (NCIH841, Lung Cancer): 0.8663 | AUC (NCIH1048, Lung Cancer): 0.8631 | AUC (NCIH1299, Lung Cancer): 0.8424 | AUC (NCIH1341, Lung Cancer): 1 | AUC (NCIH1373, Lung Cancer): 0.7413 | AUC (NCIH1437, Lung Cancer): 0.6724 | AUC (NCIH1568, Lung Cancer): 0.921 | AUC (NCIH1573, Lung Cancer): 0.8005 | AUC (NCIH1581, Lung Cancer): 0.7694 | AUC (NCIH1648, Lung Cancer): 0.776 | AUC (NCIH1792, Lung Cancer): 0.691 | AUC (NCIH1793, Lung Cancer): 0.7572 | AUC (NCIH1838, Lung Cancer): 0.8275 | AUC (NCIH1930, Lung Cancer): 1 | AUC (NCIH1944, Lung Cancer): 0.8729 | AUC (NCIH1975, Lung Cancer): 0.8115 | AUC (NCIH2004RT, Rhabdoid): 0.9741 | AUC (NCIH2052, Lung Cancer): 0.6997 | AUC (NCIH2122, Lung Cancer): 0.4802 | AUC (NCIH2170, Lung Cancer): 0.9434 | AUC (NCIH2172, Lung Cancer): 0.8484 | AUC (NCIH2196, Lung Cancer): 0.8734 | AUC (NCIH2228, Lung Cancer): 0.7811 | AUC (NCIH2347, Lung Cancer): 0.6039 | AUC (NCIH2444, Lung Cancer): 0.8316 | AUC (NCO2, CML): 0.8351 | AUC (NIHOVCAR3, Ovarian Cancer): 0.9964 | AUC (NUDHL1, Lymphoma): 0.9213 | AUC (NUGC3, Gastric Cancer): 0.8775 | AUC (OAW42, Ovarian Cancer): 0.7266 | AUC (OC314, Ovarian Cancer): 0.891 | AUC (OC316, Ovarian Cancer): 0.9187 | AUC (OCIAML2, AML): 0.6159 | AUC (OCIAML3, AML): 0.7819 | AUC (OCILY19, Lymphoma): 0.6711 | AUC (OCILY132, T-cell lymphoma): 0.9357 | AUC (OCIM1, AML): 0.6185 | AUC (OE19, Esophageal Cancer): 0.9392 | AUC (OE21, Esophageal Cancer): 0.6998 | AUC (ONCODG1, Ovarian Cancer): 0.9734 | AUC (ONS76, Medulloblastoma): 0.7969 | AUC (OSRC2, Kidney Cancer): 0.9758 | AUC (OV56, Ovarian Cancer): 0.9822 | AUC (OVCAR8, Ovarian Cancer): 0.8889 | AUC (OVISE, Ovarian Cancer): 0.951 | AUC (OVK18, Ovarian Cancer): 0.5397 | AUC (OVKATE, Ovarian Cancer): 0.8663 | AUC (OVTOKO, Ovarian Cancer): 0.8262 | AUC (PANC0203, Pancreatic Cancer): 0.6928 | AUC (PANC0327, Pancreatic Cancer): 0.889 | AUC (PANC0403, Pancreatic Cancer): 0.6894 | AUC (PANC0504, Pancreatic Cancer): 0.8448 | AUC (PANC0813, Pancreatic Cancer): 0.8655 | AUC (PATU8902, Pancreatic Cancer): 0.9465 | AUC (PC3, Prostate Cancer): 0.8494 | AUC (PECAPJ15, Head and Neck Cancer): 0.6653 | AUC (PF382, T-acute leukemia): 0.7674 | AUC (PK1, Pancreatic Cancer): 0.6974 | AUC (PK59, Pancreatic Cancer): 0.9772 | AUC (PSN1, Pancreatic Cancer): 0.6172 | AUC (RCM1, Colon/Colorectal Cancer): 0.8245 | AUC (RD, Rhabdomyosarcoma): 0.8188 | AUC (RDES, Ewing Sarcoma): 0.6507 | AUC (RERFLCAI, Lung Cancer): 0.874 | AUC (RERFLCKJ, Lung Cancer): 0.7393 | AUC (RH4, Rhabdomyosarcoma): 0.678 | AUC (RH28, Rhabdomyosarcoma): 1 | AUC (RH36, Rhabdomyosarcoma): 1 | AUC (RHJT, Rhabdomyosarcoma): 1 | AUC (RI1, B-cell Lymphoma): 0.6781 | AUC (RL952, Endometrial/Uterine Cancer): 0.946 | AUC (RL, B-cell Lymphoma): 0.7056 | AUC (RPMI8402, T-acute leukemia): 0.6488 | AUC (RT4, Bladder Cancer): 0.8068 | AUC (RVH421, Melanoma): 0.6261 | AUC (S117, Thyroid Sarcoma): 0.733 | AUC (SAOS2, Osteosarcoma): 0.6843 | AUC (SCABER, Bladder Cancer): 0.7254 | AUC (SCC9, Head and Neck Cancer): 0.6982 | AUC (SCC25, Head and Neck Cancer): 0.8637 | AUC (SCLC21H, Lung Cancer): 0.7482 | AUC (SEM, B-cell Leukemia): 0.591 | AUC (SF539, Glioma): 0.7626

Reference: article PMC11045757, “Group 3 medulloblastoma transcriptional networks collapse under domain specific EP300/CBP inhibition” (Nature Communications, 2024)
